Experimental data published in ChEMBL document CHEMBL1909046, “DrugMatrix in vitro pharmacology data”.

Tests used:
[1] = biological target: T1, Alpha-1B adrenergic receptor (Rattus norvegicus, UniProt P15823); experiment: DRUGMATRIX: Alpha-1B adrenergic receptor radioligand binding (ligand: prazosin); assay type: cell membranes, Wistar, Liver, Membrane; conditions: Not Active = under 50% inhibition at 10 µM
T1 sequence (P15823 whole entry): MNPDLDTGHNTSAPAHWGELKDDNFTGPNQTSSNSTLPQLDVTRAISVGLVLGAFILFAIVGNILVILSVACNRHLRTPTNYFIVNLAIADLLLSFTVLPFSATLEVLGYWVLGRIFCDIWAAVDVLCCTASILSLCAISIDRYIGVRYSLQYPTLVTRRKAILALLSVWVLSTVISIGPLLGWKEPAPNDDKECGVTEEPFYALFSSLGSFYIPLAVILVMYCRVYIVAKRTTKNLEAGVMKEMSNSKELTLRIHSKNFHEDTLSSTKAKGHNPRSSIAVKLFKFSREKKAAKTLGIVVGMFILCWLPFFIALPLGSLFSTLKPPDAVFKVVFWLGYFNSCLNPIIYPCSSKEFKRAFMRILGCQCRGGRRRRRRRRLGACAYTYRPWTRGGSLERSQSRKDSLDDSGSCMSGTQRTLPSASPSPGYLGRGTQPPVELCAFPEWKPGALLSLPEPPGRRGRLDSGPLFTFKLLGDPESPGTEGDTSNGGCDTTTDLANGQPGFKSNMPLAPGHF

[2] = biological target: T2, Type-2 angiotensin II receptor (Homo sapiens, UniProt P50052); assay type: cell-based; conditions: cho-k1; further: in other assays of this panel Not Active means under 50% inhibition at 10 µM
T2 sequence (P50052 whole entry): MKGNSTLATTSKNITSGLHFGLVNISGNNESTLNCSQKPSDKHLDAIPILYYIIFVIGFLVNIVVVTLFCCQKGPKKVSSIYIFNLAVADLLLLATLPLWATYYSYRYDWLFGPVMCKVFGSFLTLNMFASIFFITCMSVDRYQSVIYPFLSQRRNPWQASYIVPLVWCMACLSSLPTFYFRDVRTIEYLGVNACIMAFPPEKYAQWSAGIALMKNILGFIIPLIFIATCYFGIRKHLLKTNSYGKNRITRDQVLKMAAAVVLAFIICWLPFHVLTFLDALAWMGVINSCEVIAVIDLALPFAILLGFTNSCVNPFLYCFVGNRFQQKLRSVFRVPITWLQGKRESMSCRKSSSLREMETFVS

[3] = DRUGMATRIX: Atrial Natriuretic Factor (ANF) radioligand binding (ligand: [125I] ANF (rat)); assay type: cell membranes, Cavia porcellus, Dunkin-Hartley, Adrenal gland, Membrane; conditions: Not Active = under 50% inhibition at 10 µM
[4] = biological target: C-C chemokine receptor type 2 (Homo sapiens, UniProt P41597); assay type: cell membranes, CHO-K1, Membrane; conditions: cho-k1; further: in other assays of this panel Not Active means under 50% inhibition at 10 µM
[5] = biological target: T3, C-C chemokine receptor type 4 (Homo sapiens, UniProt P51679); assay type: cell membranes, Chem-1, Membrane; conditions: chem-1; further: in other assays of this panel Not Active means under 50% inhibition at 10 µM
T3 sequence (P51679 whole entry): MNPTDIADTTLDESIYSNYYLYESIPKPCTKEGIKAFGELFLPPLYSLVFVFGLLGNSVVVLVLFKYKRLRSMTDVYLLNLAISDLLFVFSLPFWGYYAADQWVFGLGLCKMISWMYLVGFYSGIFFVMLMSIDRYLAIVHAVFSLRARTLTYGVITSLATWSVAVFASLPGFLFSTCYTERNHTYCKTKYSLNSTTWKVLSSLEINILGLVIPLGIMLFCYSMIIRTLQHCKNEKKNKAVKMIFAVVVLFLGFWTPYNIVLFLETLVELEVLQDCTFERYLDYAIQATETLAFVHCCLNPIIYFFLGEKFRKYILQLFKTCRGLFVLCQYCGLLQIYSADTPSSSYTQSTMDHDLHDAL

[6] = DRUGMATRIX: Platelet-Derived Growth Factor (PDGF) radioligand binding (ligand: [125I] PDGF); assay type: cell-based; conditions: nih3t3; Not Active = under 50% inhibition at 10 µM
Cytochrome P450 2D6 = Cytochrome P450 2D6 (Homo sapiens, UniProt P10635); conditions: bti-tn-5b1-4; further: in other assays of this panel Not Active means under 50% inhibition at 10 µM
Estrogen receptor beta = Estrogen receptor beta (Homo sapiens, UniProt Q92731); conditions: sf9; further: in other assays of this panel Not Active means under 50% inhibition at 10 µM
Estrogen receptor beta, sequence (Q92731 whole entry): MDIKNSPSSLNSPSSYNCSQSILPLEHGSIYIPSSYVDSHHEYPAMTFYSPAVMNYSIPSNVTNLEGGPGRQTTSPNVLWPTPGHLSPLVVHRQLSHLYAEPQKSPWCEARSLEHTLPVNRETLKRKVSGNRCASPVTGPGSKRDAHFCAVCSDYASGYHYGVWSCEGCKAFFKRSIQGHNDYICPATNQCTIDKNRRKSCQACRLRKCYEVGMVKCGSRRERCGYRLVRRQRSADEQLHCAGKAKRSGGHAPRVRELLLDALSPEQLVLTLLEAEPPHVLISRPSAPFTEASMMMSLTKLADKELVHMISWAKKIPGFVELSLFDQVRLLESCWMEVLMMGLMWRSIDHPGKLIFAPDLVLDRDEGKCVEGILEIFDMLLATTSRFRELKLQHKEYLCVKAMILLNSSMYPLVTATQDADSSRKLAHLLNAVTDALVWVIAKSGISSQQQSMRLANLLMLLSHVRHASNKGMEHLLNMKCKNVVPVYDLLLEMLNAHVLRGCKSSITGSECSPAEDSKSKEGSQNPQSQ

C-C chemokine receptor type 2, sequence (P41597 whole entry): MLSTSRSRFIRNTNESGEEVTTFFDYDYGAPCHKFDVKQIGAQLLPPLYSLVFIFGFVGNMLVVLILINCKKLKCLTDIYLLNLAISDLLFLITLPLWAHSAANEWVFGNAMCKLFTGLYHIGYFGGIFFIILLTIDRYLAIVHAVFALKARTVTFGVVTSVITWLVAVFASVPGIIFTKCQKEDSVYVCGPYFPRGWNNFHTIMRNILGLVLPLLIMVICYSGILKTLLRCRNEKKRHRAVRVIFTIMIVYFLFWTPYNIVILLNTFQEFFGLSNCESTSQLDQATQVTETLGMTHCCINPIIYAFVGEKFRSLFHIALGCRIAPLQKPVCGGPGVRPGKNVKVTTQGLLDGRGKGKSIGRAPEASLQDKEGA
Cytochrome P450 2D6, sequence (P10635 whole entry): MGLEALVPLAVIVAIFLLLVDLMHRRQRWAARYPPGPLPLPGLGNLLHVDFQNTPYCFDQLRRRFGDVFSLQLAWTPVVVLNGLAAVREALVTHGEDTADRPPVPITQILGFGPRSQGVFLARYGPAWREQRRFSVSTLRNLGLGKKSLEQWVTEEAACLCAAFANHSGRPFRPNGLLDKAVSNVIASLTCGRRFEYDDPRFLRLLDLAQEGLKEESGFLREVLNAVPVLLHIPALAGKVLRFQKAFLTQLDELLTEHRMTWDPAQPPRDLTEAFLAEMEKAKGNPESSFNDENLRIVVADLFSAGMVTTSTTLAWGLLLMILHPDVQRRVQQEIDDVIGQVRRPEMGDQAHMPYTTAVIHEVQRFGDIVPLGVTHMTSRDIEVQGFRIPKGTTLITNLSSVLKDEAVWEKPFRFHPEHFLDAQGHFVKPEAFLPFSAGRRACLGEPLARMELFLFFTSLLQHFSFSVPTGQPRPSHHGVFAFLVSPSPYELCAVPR

O=C(Nc1ccc(Cl)c(Cl)c1)c1cc(Cl)cc(Cl)c1O [3,3',4',5-TETRACHLOROSALICYLANILIDE]
Not Active: IC50 [1] | IC50 [2] | IC50 [3] | Ki [3] | IC50 [4] | IC50 [5] | IC50 [6] | Ki [6] | IC50 (Cytochrome P450 2D6) | Ki (Cytochrome P450 2D6) | IC50 (Estrogen receptor beta)

OC[C@H]1O[C@@H]2O[C@H]3[C@H](O)[C@@H](O)[C@@H](O[C@H]4[C@H](O)[C@@H](O)[C@@H](O[C@H]5[C@H](O)[C@@H](O)[C@@H](O[C@H]6[C@H](O)[C@@H](O)[C@@H](O[C@H]7[C@H](O)[C@@H](O)[C@@H](O[C@H]1[C@H](O)[C@H]2O)O[C@@H]7CO)O[C@@H]6CO)O[C@@H]5CO)O[C@@H]4CO)O[C@@H]3CO [ALFADEX]
Not Active: IC50 [1] | IC50 [2] | IC50 [3] | Ki [3] | IC50 [4] | IC50 [5] | IC50 [6] | Ki [6] | IC50 (Cytochrome P450 2D6) | Ki (Cytochrome P450 2D6) | IC50 (Estrogen receptor beta)

CC(=O)Nc1ccc2c(c1)Cc1ccccc1-2 [2-ACETYLAMINOFLUORENE]
Not Active: IC50 [1] | IC50 [2] | IC50 [3] | Ki [3] | IC50 [4] | IC50 [5] | IC50 [6] | Ki [6] | IC50 (Cytochrome P450 2D6) | Ki (Cytochrome P450 2D6) | IC50 (Estrogen receptor beta)

CCN1CCN(c2cc3c(cc2F)c(=O)c(C(=O)O)cn3C2CC2)CC1 [ENROFLOXACIN]
Not Active: IC50 [1] | IC50 [2] | IC50 [3] | Ki [3] | IC50 [4] | IC50 [5] | IC50 [6] | Ki [6] | IC50 (Cytochrome P450 2D6) | Ki (Cytochrome P450 2D6) | IC50 (Estrogen receptor beta)

O=C(O)CO [GLYCOLIC ACID]
Not Active: IC50 [1] | IC50 [2] | IC50 [3] | Ki [3] | IC50 [4] | IC50 [5] | IC50 [6] | Ki [6] | IC50 (Cytochrome P450 2D6) | Ki (Cytochrome P450 2D6) | IC50 (Estrogen receptor beta)

C[C@@H]1[C@H](O)[C@@H](C)/C=C/C=C/C=C/C=C/C=C/C=C/C=C/[C@H](O[C@@H]2O[C@H](C)[C@@H](O)[C@H](N)[C@@H]2O)C[C@@H]2O[C@](O)(C[C@@H](O)C[C@@H](O)[C@H](O)CC[C@@H](O)C[C@@H](O)CC(=O)O[C@H]1C)C[C@H](O)[C@H]2C(=O)O [AMPHOTERICIN B]
Not Active: IC50 [1] | IC50 [2] | IC50 [3] | Ki [3] | IC50 [4] | IC50 [5] | IC50 [6] | Ki [6] | IC50 (Cytochrome P450 2D6) | Ki (Cytochrome P450 2D6) | IC50 (Estrogen receptor beta)

CC12CCC(CC1=O)C2(C)C (centres undefined) [CAMPHOR]
Not Active: IC50 [1] | IC50 [2] | IC50 [3] | Ki [3] | IC50 [4] | IC50 [5] | IC50 [6] | Ki [6] | IC50 (Cytochrome P450 2D6) | Ki (Cytochrome P450 2D6) | IC50 (Estrogen receptor beta)

CCC1(c2ccccc2)C(=O)NC(=O)NC1=O [PHENOBARBITAL]
Not Active: IC50 [1] | IC50 [2] | IC50 [3] | Ki [3] | IC50 [4] | IC50 [5] | IC50 [6] | Ki [6] | IC50 (Cytochrome P450 2D6) | Ki (Cytochrome P450 2D6) | IC50 (Estrogen receptor beta)

C[N+](C)(C)CCOP(=O)([O-])OC[C@H](O)CO
Not Active: IC50 [1] | IC50 [2] | IC50 [3] | Ki [3] | IC50 [4] | IC50 [5] | IC50 [6] | Ki [6] | IC50 (Cytochrome P450 2D6) | Ki (Cytochrome P450 2D6) | IC50 (Estrogen receptor beta)

Nc1nc(F)nc2c1ncn2[C@@H]1O[C@H](CO)[C@@H](O)[C@@H]1O [FLUDARABINE]
Not Active: IC50 [1] | IC50 [2] | IC50 [3] | Ki [3] | IC50 [4] | IC50 [5] | IC50 [6] | Ki [6] | IC50 (Cytochrome P450 2D6) | Ki (Cytochrome P450 2D6) | IC50 (Estrogen receptor beta)

Nc1nc(N)c2nc(CNc3ccc(C(=O)N[C@@H](CCC(=O)O)C(=O)O)cc3)cnc2n1 [AMINOPTERIN]
Not Active: IC50 [1] | IC50 [2] | IC50 [3] | Ki [3] | IC50 [4] | IC50 [5] | IC50 [6] | Ki [6] | IC50 (Cytochrome P450 2D6) | Ki (Cytochrome P450 2D6) | IC50 (Estrogen receptor beta)

Oc1ncnc2[nH]ncc12 [ALLOPURINOL]
Not Active: IC50 [1] | IC50 [2] | IC50 [3] | Ki [3] | IC50 [4] | IC50 [5] | IC50 [6] | Ki [6] | IC50 (Cytochrome P450 2D6) | Ki (Cytochrome P450 2D6) | IC50 (Estrogen receptor beta)

O=C(O)CCc1nc(-c2ccccc2)c(-c2ccccc2)o1 [OXAPROZIN]
Not Active: IC50 [1] | IC50 [2] | IC50 [3] | Ki [3] | IC50 [4] | IC50 [5] | IC50 [6] | Ki [6] | IC50 (Cytochrome P450 2D6) | Ki (Cytochrome P450 2D6) | IC50 (Estrogen receptor beta)

CC1(COc2ccc(CC3SC(=O)NC3=O)cc2)CCCCC1 (centres undefined) [CIGLITAZONE]
Not Active: IC50 [1] | IC50 [2] | IC50 [3] | Ki [3] | IC50 [4] | IC50 [5] | IC50 [6] | Ki [6] | IC50 (Cytochrome P450 2D6) | Ki (Cytochrome P450 2D6) | IC50 (Estrogen receptor beta)
